From article PMC6949113, “Preclinical evaluation of AT-527, a novel guanosine nucleotide prodrug with potent, pan-genotypic activity against hepatitis C virus” (PLoS ONE, 2020)
“And” between values parts separate entries of the source, which are not always exact repeats. Identical values can stand only once. Marks after values point to notes of the source that are not given here.

Key:
[1] = Intracellular metabolism in human hepatocytes; assay type: in vitro ADME; conditions: human hepatocytes
Experimental: (§1) Hepatocytes. […] Cryopreserved male mouse (CD1), and fresh male Beagle dog and male cynomolgus monkey hepatocytes were obtained from BioreclamationIVT (Baltimore, MD) and were similarly plated with Matrigel in 6- or 24-well plates and maintained overnight in InVitroGRO™HI medium with Torpedo™ antibiotic (BioreclamationIVT). The protocol described above for measuring AT-511 and its metabolites in Huh-7 cells was repeated with the five different hepatocytes. Untreated cells were collected at 24 h, and the protein content of the cell lysates were determined using a bicinchoninic acid protein assay kit to assess the number of cells in each incubation. Separately, plated human hepatocytes were incubated for 6 h with 100 μM AT-511, followed by washout periods of 0, 2, 6, 18 and 30 h.
(§2) S3 Protocol. LC-MS/MS analysis of AT-511 and metabolites in cultured cells. The supernatant extracts of each hepatocyte and Huh-7 cell incubation were separately analyzed by four different LC-MS/MS methods for quantitation of phosphoramidates, nucleosides, monophosphates, and triphosphates (methods 1, 2, 3 and 4, respectively), using synthetic reference standards of actually and potentially present compounds and using structurally related analogs as internal standards. Briefly, a Luna PFP (2), 5 µm, 100 x 4.6 mm column and an AB Sciex API-6500 mass spectrometer (ESI positive ion, MRM mode) were used for methods 1-3 and an XBridge Oligonucleotide, BEH C18, 2.5 µm, 50 x 2.1 mm column and a Thermo QE Plus mass spectrometer (electrospray, negative ion mode) were used for method 4. For methods 1 and 2, mobile phases A (10 mM ammonium acetate in water) and B (acetonitrile:methanol, 1:1, v/v) were used to elute samples (5 µL) at 1 mL/min with 15% B for 1.5 min followed by a linear gradient to 75% B over 1 min (method 1) or with 54% B for 1.3 min followed by a linear gradient to 90% B over 1.2 min. Method 3 was the same except mobile phase A was 0.3% acetic acid in water, […] and samples were eluted with 3% B for 3 min followed by a linear gradient to 55% B over 1.2 min. For method 4, mobile phase A (3 mM ammonium formate with 10 mM dimethylhexylamine (DMHA) in water) and mobile phase B (3 mM ammonium formate with 10 mM DMHA in acetonitrile:water, 1:1, v/v) were used to elute samples at 0.4 mL/min with 0% B for 1.5 min followed by a linear gradient to 100% B over 2 min and ending with an isocratic elution for 0.5 min at 100% B.

[2] = Intracellular metabolism in mouse hepatocytes; assay type: in vitro ADME, mouse (CD1)
Experimental: as §1, §2

[3] = Intracellular metabolism in dog hepatocytes; assay type: in vitro ADME, Beagle dog
Experimental: as §1, §2

[4] = Monkey PK study, liver and heart tissue levels; assay type: in vivo, cynomolgus monkey; conditions: monkey; for Mean Concentration at 4 hr Postdose, Heart: footnoted values extrapolated below LLOQ
Text: Monkey PK study. Male non-naïve cynomolgus monkeys were obtained from Hainan Jingang Laboratory Animal Co., Ltd. (Hainan, China), group housed during the 5-day acclimation period or individually housed during the study in stainless steel mesh cages, provided ad libitum access to RO water, fed twice daily (~120 g Certified Monkey Diet daily; Beijing Vital Keao Feed Co., Ltd., Beijing, China) and given daily treats of fresh fruit. Additional environmental enrichment included classical music and cartoons. Three groups of 5 monkeys each were administered 30, 100 or 300 mg/kg AT-527 as a powder filled in empty porcine hard gelatin capsules (size 0). The monkeys were fasted overnight prior to dosing and fed 4 h after dosing. Three dosages were selected to provide assessments of dose proportionality, the top two representing potential doses for a repeated oral dose toxicity study in monkeys, and the lowest predicted to be more therapeutically relevant. A pill gun was used to place the capsule beyond the root of the animals’ tongues and their mouths were held loosely closed for approximately 30 sec to allow them to move the jaw and swallow the capsule. Immediately following capsule administration, 20 mL of water was given by mouth and then the mouth was opened to ensure the capsule was swallowed. Blood samples (~0.6 mL) were collected up to 72 h from three animals per dose group, and up to 4 h from the remaining two animals in each group, at the same time points described for rats. […] Blood samples were collected with a syringe from a peripheral blood vessel from restrained, non-sedated animals, immediately transferred to pre-chilled tubes containing ~1 mg K2EDTA•2H20 and 20 μL of 5 mM dichlorvos solution, mixed and placed on ice until plasma was prepared by centrifugation as described for rats. Immediately after centrifugation, plasma samples were extracted with 4 volumes ISS2, and the supernatants were clarified by centrifugation (12,000 rpm, 10 min, 4°C) and stored at ≤ -60°C until analyzed by LC-MS/MS as described below. After the 4-hr blood collection, two monkeys per dose group were anesthetized with intravenous injection of pentobarbital sodium (60 mg/kg) and then euthanized as described for rats. […] All analytes were quantitated by LC-MS/MS as described below.
For the analysis of AT-9010 in rat tissue homogenate supernatant, aliquots were diluted 1:2 with water and injected onto an Agilent Zorbax Extend C18 5 μm, 2.1 × 50 mm column and a Sciex API 4000 mass spectrometer (ESI positive ion, MRM mode). Mobile phases A (0.001% ammonia and 0.18 mM DBAA in water (1:1, v/v) and B (10 mM dimethylhexylamine (DMHA) and 3 mM AA in 50% ACN in water) were used to elute samples (60 μL) at 0.7 mL/min with 2% B for 0.8 min followed by a linear gradient to 30% B over 0.4 min, isocratic elution at 30% B for 0.4 min, a linear gradient to 95% B over 0.4 min, and ending with 95% B for 0.4 min. The analysis of AT-9010 in monkey tissue homogenate supernatant was the same except the sample injection volume was 20 μL. Attempts to measure tissue levels of other potentially formed TPs, including 2,6-diaminopurine-2’-F-2’-C-methylribosyl-5’-triphosphate and 2-amino-6-methylaminopurine-2’-F-2’-C-methylribosyl-5’-triphosphate (M2-TP), also used this method.
For the analysis of M2 and M3 in monkey tissue homogenate supernatant, aliquots were diluted 1:3 with water and injected onto an Acuity HSS T3 1.8 μm, 2.1 × 50 mm column and a Sciex API 6500 mass spectrometer (ESI positive ion, MRM mode). Mobile phases A (0.3% FA and 10 mM AA in water and B (0.3% FA and 10 mM AA in 95% ACN in water) were used to elute samples (1 μL) at 0.6 mL/min with 0% B for 0.4 min followed by linear gradients to 30% B over 0.5 min and to 95% B over 0.2 min, ending with isocratic elution at 95% B for 0.4 min.

[5] = target: human mitochondrial RNA polymerase (POLRMT) (Homo sapiens, UniProt O00411); assay: POLRMT nucleotide incorporation assay; assay type: biochemical
Sequence of human mitochondrial RNA polymerase (POLRMT) (O00411 42-1230): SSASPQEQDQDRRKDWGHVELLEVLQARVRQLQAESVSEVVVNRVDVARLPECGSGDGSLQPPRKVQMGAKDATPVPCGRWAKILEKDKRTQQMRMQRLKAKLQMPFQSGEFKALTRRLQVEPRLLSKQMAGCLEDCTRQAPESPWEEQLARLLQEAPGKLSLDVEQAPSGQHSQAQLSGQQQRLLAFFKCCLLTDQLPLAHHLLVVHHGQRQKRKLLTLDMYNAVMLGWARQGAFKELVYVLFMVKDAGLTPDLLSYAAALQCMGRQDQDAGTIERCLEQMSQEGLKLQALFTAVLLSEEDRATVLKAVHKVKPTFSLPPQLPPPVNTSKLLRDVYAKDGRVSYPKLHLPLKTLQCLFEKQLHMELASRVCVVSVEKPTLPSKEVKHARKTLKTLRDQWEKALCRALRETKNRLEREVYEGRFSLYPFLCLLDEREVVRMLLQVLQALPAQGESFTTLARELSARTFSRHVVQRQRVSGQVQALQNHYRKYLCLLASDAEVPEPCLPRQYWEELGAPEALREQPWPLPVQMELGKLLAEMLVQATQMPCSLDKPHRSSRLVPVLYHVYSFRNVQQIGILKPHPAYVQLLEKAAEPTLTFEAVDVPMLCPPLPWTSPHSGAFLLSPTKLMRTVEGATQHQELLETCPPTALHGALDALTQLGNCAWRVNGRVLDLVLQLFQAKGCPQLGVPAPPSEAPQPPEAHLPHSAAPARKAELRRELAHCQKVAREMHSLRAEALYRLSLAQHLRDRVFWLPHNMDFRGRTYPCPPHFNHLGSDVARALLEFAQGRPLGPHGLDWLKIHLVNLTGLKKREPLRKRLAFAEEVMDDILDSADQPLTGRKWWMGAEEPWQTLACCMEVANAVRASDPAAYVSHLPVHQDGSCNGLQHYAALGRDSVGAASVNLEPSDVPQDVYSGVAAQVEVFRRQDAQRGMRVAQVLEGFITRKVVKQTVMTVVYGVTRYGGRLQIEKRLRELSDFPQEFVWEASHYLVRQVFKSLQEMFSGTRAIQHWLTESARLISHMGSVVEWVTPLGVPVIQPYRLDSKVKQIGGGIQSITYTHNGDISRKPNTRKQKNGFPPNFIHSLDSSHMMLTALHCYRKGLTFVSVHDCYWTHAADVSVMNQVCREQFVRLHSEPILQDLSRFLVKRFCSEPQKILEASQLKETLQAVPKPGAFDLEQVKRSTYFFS

Row | Structure (SMILES) | Mean Concentration at 4 hr Postdose, Liver ([4]; AT-527 30 mg/kg oral) | Liver/Heart Ratio ([4]; AT-527 30 mg/kg oral, 4 h) | Mean Concentration at 4 hr Postdose, Heart ([4]; AT-527 30 mg/kg oral) | Mean Concentration at 4 hr Postdose, Liver ([4]; AT-527 100 mg/kg oral) | Liver/Heart Ratio ([4]; AT-527 100 mg/kg oral, 4 h) | Mean Concentration at 4 hr Postdose, Heart ([4]; AT-527 100 mg/kg oral) | Mean Concentration at 4 hr Postdose, Liver ([4]; AT-527 300 mg/kg oral) [pmol/g] | Mean Concentration at 4 hr Postdose, Heart ([4]; AT-527 300 mg/kg oral) | also measured
1 | C[C@@]1(F)[C@H](O)[C@@H](CO)O[C@H]1n1cnc2c(=O)[nH]c(N)nc21 [AT-273] | 267 pmol/g | 3.0 | 88.5 pmol/g | 672 pmol/g | 2.9 | 229 pmol/g | 939 | 444 pmol/g | intracellular levels of nucleoside metabolites ([1]; low to undetectable): < 10 pmol/10^6 cells; intracellular levels of nucleoside metabolites ([2]; low to undetectable): < 10 pmol/10^6 cells; intracellular levels of nucleoside metabolites ([3]; low to undetectable): < 10 pmol/10^6 cells; Liver/Heart Ratio ([4]; AT-527 300 mg/kg oral, 4 h): 2.1
2 | C[C@@]1(F)[C@H](O)[C@@H](COP(=O)(O)OP(=O)(O)OP(=O)(O)O)O[C@H]1n1cnc2c(=O)[nH]c(N)nc21 [AT-9010] | 545 ± 349 pmol/g and 545 pmol/g | 11^b | 51.2^b pmol/g | 1890 ± 519 pmol/g and 1890 pmol/g | 31^b | 61.8^b pmol/g | 968 | 55.3^b pmol/g | Relative efficiency ([5]; (kpol/Kd,app)incorrect/(kpol/Kd,app)correct): 2.2 x 10^−6; Kd ([5]; POLRMT-catalyzed nucleotide incorporation, read-out: Kd,app): 204 ± 94 µM; kpol/Kd, app ([5]; efficiency of incorporation): 8.3 ± 4.0 x 10^−6 μM^-1s^-1; AUC0-24, intracellular ([1]; 10 μM AT-511): 1363 pmol*h/10^6 cells; Cmax, intracellular ([1]; 10 μM AT-511, 0-24 h): 69.2 ± 8.8 pmol/10^6 cells; AUC0-24, intracellular ([2]; 10 μM AT-511): 1177 pmol*h/10^6 cells; Cmax, intracellular ([2]; 10 μM AT-511, 0-24 h): 85.4 ± 0.4 pmol/10^6 cells; AUC0-24, intracellular ([3]; 10 μM AT-511): 229 pmol*h/10^6 cells; Cmax, intracellular ([3]; 10 μM AT-511, 0-24 h): 15.4 ± 6.6 pmol/10^6 cells; fold higher mean liver concentration than parent phosphoramidate ([4]; 30 mg/kg, 4 h): 34 fold
